# Patent US9321722B2, “Bis-indolic derivatives, their uses in particular as antibacterials” (UNIVERSITE JOSEPH FOURIER, priority 2011, dated 2016)
# Key:
# [1] = tested on: S. aureus ATCC 106414 (VISA); assay: MIC microdilution (Table I-1); assay type: cell-based, Staphylococcus aureus; conditions: Staphylococcus aureus, read after 18 hours, read-out: MIC
# Description: (§1) The microdilution method recommended by the Clinical and Laboratory Standard Institute [M07-A8, Vol. 29, N^o 2] was used. The activity of indolic compounds was tested against 29 bacterial strains belonging to 17 different species and 12 different genera (Staphylococcus, Streptococcus, Enterococcus, Listeria, Bacillus, Haemophilus, Escherichia, Klebsiella, Enterobacter, Serratia, Pseudomonas, and Acinetobacter). Bacterial inocula were prepared in Mueller Hinton broth (MH2, bioMerieux, Marcy L'Etoile, France), supplemented with 10% sheep blood for fastidious species (i.e., Streptococcus pneumoniae and Haemophilus influenzae). They were dispensed in 96 well microtiter plates (5×10^5 CFU/ml of final inoculum). Indolic compounds were added to the wells as to obtain two-fold serial concentrations (0.50-128 mg/L of final concentrations). Plates were incubated at 37° C. in ambient air, or at 37° C. in 5% CO2 enriched atmosphere for fastidious species. […] Drug-free cultures served as growth controls. Cultures receiving gentamicin, ciprofloxacin or cefotaxime served as positive controls.
# S. aureus ATCC 29213 = assay: MIC microdilution (Table I-1); assay type: cell-based, Staphylococcus aureus; conditions: Staphylococcus aureus, ATCC29213, read after 18 hours, read-out: MIC
# Description: as §1
# [2] = tested on: S. aureus ATCC 33592 (MRSA); assay: MIC microdilution (Table I-1); assay type: cell-based, Staphylococcus aureus; conditions: Staphylococcus aureus, read after 18 hours, read-out: MIC
# Description: as §1
# S. aureus ATCC 6538 = assay: MIC microdilution (Table I-1); assay type: cell-based, Staphylococcus aureus; conditions: Staphylococcus aureus, ATCC6538, read after 18 hours, read-out: MIC
# Description: as §1
# S. aureus ATCC 9144 = assay: MIC microdilution (Table I-1); assay type: cell-based, Staphylococcus aureus; conditions: Staphylococcus aureus, ATCC9144, read after 18 hours, read-out: MIC
# Description: as §1
# S. aureus CIP 103428 = assay: MIC microdilution (Table I-1); assay type: cell-based, Staphylococcus aureus; conditions: Staphylococcus aureus, CIP103428, read after 18 hours, read-out: MIC
# Description: as §1
# [3] = tested on: S. aureus CIP 65.25 (MRSA); assay: MIC microdilution (Table I-1); assay type: cell-based, Staphylococcus aureus; conditions: Staphylococcus aureus, read after 18 hours, read-out: MIC
# Description: as §1
# S. aureus CIP 65.6 = assay: MIC microdilution (Table I-1); assay type: cell-based, Staphylococcus aureus; conditions: Staphylococcus aureus, CIP65, read after 18 hours, read-out: MIC
# Description: as §1
# S. aureus SA-1199B = assay: MIC microdilution (Table I-1); assay type: cell-based, Staphylococcus aureus; conditions: Staphylococcus aureus, SA1199B, 18 h
# Description: as §1
# [4] = tested on: S. epidermidis ATCC 12228; assay: MIC microdilution (Table I-1); assay type: cell-based, Staphylococcus epidermidis; conditions: Staphylococcus epidermidis, ATCC12228, read after 18 hours, read-out: MIC
# Description: as §1
# [5] = tested on: S. epidermidis CIP 103627; assay: MIC microdilution (Table I-1); assay type: cell-based, Staphylococcus epidermidis; conditions: Staphylococcus epidermidis, CIP103627, read after 18 hours, read-out: MIC
# Description: as §1
# S. epidermidis CIP 81.55 = assay: MIC microdilution (Table I-1); assay type: cell-based, Staphylococcus epidermidis; conditions: Staphylococcus epidermidis, CIP81, read after 18 hours, read-out: MIC
# Description: as §1
# [6] = tested on: Haemophilus influenzae ATCC 49766; assay: MIC microdilution (Table I-1); assay type: cell-based; conditions: ATCC49766; Haemophilus influenzae ATCC 49766; read after 18 hours; read-out: MIC
# Description: as §1
# [7] = tested on: Listeria innocua CIP 80.11; assay: MIC microdilution (Table I-1); assay type: cell-based; conditions: CIP80, read after 18 hours, read-out: MIC
# Description: as §1
# [8] = tested on: S. agalactiae (group B) ATCC 12400; assay: MIC microdilution (Table I-1); assay type: cell-based; conditions: Streptococcus agalactiae, ATCC12400, read after 18 hours, read-out: MIC
# Description: as §1
# [9] = tested on: Staphylococcus aureus 1199B (overexpression of the NorA efflux pump); assay: Efflux pump inhibition assay with sub-inhibitory ciprofloxacin; assay type: cell-based; conditions: in the presence of ciprofloxacin 4 mg/L (MIC/4)
# Description: The efflux pump inhibition potential of the bis-indolic derivatives was tested using two steps. In a first step, the intrinsic antibacterial activity of the compounds was assayed against the following strains:
# The following experimental protocol was used: indolic derivatives (initially solubilised in DMSO at 10 mg/mL) were dispensed in a 96-wells microplate by two fold serial dilutions in Muller-Hinton medium (MH, Bio Rad) using a Biomek 2000 (Beckman) handling robot. 100 μL of the bacterial inoculum (an overnight culture at 37° C. in 5 mL MH diluted 100-fold) was then added in each well. The total volume was 200 μL in each well and the final bacteria concentration 10^6 CFU/mL (CFU: colony forming unit). The highest final indolic derivative concentration was 128 mg/L. Growth was assayed with a microplate reader by monitoring absorption at 620 nm after 1, 2, 5, 7 and 24 h incubation at 37° C. In addition, the plates were read visually after 24 hours incubation. Cultures containing 5 μL DMSO were used as growth controls. In addition, two controls containing a sub-inhibitory or a inhibitory antibiotic concentration for the tested strain were performed. The antibiotics used were ampicillin (0.5 and 32 μg/mL) for E. coli, kanamycin (0.5 and 16 μg/mL) for S. aureus ATCC 25923, ciprofloxacin (4 and 64 mg/L) for S. aureus 1199B, ciprofloxacin (0.5 and 2 mg/L) for S. aureus K2378. All experiments were performed in duplicate.
# Efflux pump inhibition assays were then performed against resistant Staphylococcus aureus strains SA 1199B and SA K2378 for bis-indolic derivatives. […] The minimal inhibitory concentration (MIC) of the bis-indolic compound allowing a complete inhibition of the bacterial growth in the presence of ciprofloxacin was determined.
# [10] = tested on: HCT116 (human colon tumor); assay: In vitro cytotoxicity; assay type: cell-based; conditions: for inhibition at 10 µM: HCT-116, HCT116, 10^−5 M, read-out: % of cellular growth inhibition; for inhibition at 1 µM: HCT-116, HCT116, 10^−6 M, read-out: % of cellular growth inhibition (converted)
# Description: (§2) In vitro cytotoxicity was assayed on three cell lines—KB (human mouth carcinoma), MCR5 (human lung fibroblast) and HCT116 (human colon tumor). Results are presented in table III as % of cellular growth inhibition in presence of 10^−5 M and 10^−6 M of the tested bis-indolic derivatives.
# [11] = tested on: KB (human mouth carcinoma); assay: In vitro cytotoxicity; assay type: cell-based; conditions: KB; for inhibition at 10 µM: 10^−5 M, read-out: % of cellular growth inhibition; for inhibition at 1 µM: 10^−6 M, read-out: % of cellular growth inhibition (converted)
# Description: as §2
# [12] = tested on: MRC5 (human lung fibroblast); assay: In vitro cytotoxicity; assay type: cell-based; conditions: for inhibition at 10 µM: MRC5, 10^−5 M, read-out: % of cellular growth inhibition; for inhibition at 1 µM: MRC5, 10^−6 M, read-out: % of cellular growth inhibition (converted)
# Description: as §2
SMILES,MIC [1] [µg/mL],MIC (S. aureus ATCC 29213) [µg/mL],MIC [2] [µg/mL],MIC (S. aureus ATCC 6538) [µg/mL],MIC (S. aureus ATCC 9144) [µg/mL],MIC (S. aureus CIP 103428) [µg/mL],MIC [3] [µg/mL],MIC (S. aureus CIP 65.6) [µg/mL],MIC (S. aureus SA-1199B) [µg/mL],MIC [4] [µg/mL],MIC [5] [µg/mL],MIC (S. epidermidis CIP 81.55) [µg/mL],MIC [6] [µg/mL],MIC [7] [µg/mL],inhibition at 10 µM [10] [%],inhibition at 1 µM [10] [%],inhibition at 10 µM [11] [%],inhibition at 1 µM [11] [%],inhibition at 10 µM [12] [%],inhibition at 1 µM [12] [%],also measured
"O=C(C(=O)N1CCOCC1c1c[nH]c2ccccc12)c1c[nH]c2ccccc12 (stereo not drawn) [Compound 6b, 1-(3-(1H-Indol-3-yl)morpholino)-2-(1H-indol-3-yl)ethane-1,2-dione]",> 128,> 128,> 128,> 128,> 128,> 128,> 128,> 128,> 128,> 128,> 128,> 128,> 128,> 128,21 ± 10,2,9 ± 4,0,15 ± 11,0,"MIC [8]: > 128 µg/mL; CMI, mg/L (Ciprofloxacin concentration, mg/L) [9]: 0.5 (4) mg/L"
"O=C(C(=O)N1CCCCC1c1c[nH]c2ccc(Br)cc12)c1c[nH]c2ccc(Br)cc12 (stereo not drawn) [Compound 6d, 1-(5-Bromo-1H-indol-3-yl)-2-(2-(5-bromo-1H-indol-3-yl)piperidin-1-yl)ethane-1,2-dione]",> 128,2 to 4,> 128,> 128,> 128,> 128,> 128,> 128,> 128,> 128,> 128,> 128,> 128,> 128,41 ± 4,4,53 ± 5,0,0,0,"MIC [8]: > 128 µg/mL; CMI, mg/L (Ciprofloxacin concentration, mg/L) [9]: <0.125 (4) mg/L"
"CC(C)(C)OC(=O)N1CCN(C(=O)C(=O)c2c[nH]c3ccccc23)C(c2c[nH]c3ccccc23)C1 (stereo not drawn) [Compound 6c, tert-Butyl 4-(2-(1H-indol-3-yl)-2-oxoacetyl)-3-(1H-indol-3-yl)piperazine-1-carboxylate]",> 128,> 128,> 128,> 128,> 128,> 128,> 128,> 128,> 128,> 128,> 128,> 128,> 128,> 128,53 ± 3,8,66 ± 8,0,6 ± 16,0,"MIC [8]: > 128 µg/mL; CMI, mg/L (Ciprofloxacin concentration, mg/L) [9]: 0.25 (4) mg/L"
"CC(NC(=O)C(=O)c1c[nH]c2ccc(Br)cc12)c1c[nH]c2ccc(Br)cc12 (stereo not drawn) [Compound 5, 2-(5-Bromo-1H-indol-3-yl)-N-(1-(5-bromo-1H-indol-3-yl)ethyl)-2-oxoacetamide]",1,1,1,1,1,1,1,2,2,2,2,2,32,64,80 ± 3,10,91 ± 3,0,85 ± 2,6,MIC [8]: 64 µg/mL
"CC(C)(C)OC(=O)NCC(NC(=O)C(=O)c1c[nH]c2ccc(Br)cc12)c1c[nH]c2ccc(Br)cc12 (stereo not drawn) [Compound 4, tert-Butyl(2-(5-bromo-1H-indol-3-yl)-2-(2-(5-bromo-1H-indol-3-yl)-2-oxoacetamido)ethyl) carbamate]",0.8,0.8,0.8,0.8,0.8,1.6,1.6,0.8,1.6,0.8,1.6,1.6,–,–,58 ± 4,0,76 ± 5,0,51 ± 9,0,–
